Data on 17 compounds can be found in patent publication US8513242B2, “Pyrimidine compounds and methods of making and using same” (Cystic Fibrosis Foundation Therapeutics, Inc., priority 2008, dated 2013).

Assay [1] concerns the target T1, ΔF508 CFTR (Homo sapiens, UniProt P13569, DEL508-508).
T1 construct: expressed in transfected cells; host or cells: FRT epithelial cells (Fischer rat thyroid)
The experiment in a line: Dual corrector potentiator assay, corrector mode: FRT cell Ussing chamber short circuit current after 24 hours exposure to compound. The format is cell-based. Particulars: for EC50: FRT cell monolayers, 24 hours exposure, EC50 defined as concentration giving >25% increase in whole cell Cl− conductance vs DMSO at 37° C.; for Corrector Efficacy: ΔIcompound(forskolin+IBMX+genistein)/ΔIvehicle(forskolin+IBMX+genistein). As for the experimental part: (§1) FRT epithelial cell monolayers were grown on Snapwell filter inserts and optionally treated with a reference corrector N-(2-(5-chloro-2-methoxyphenylamino)-4′-methyl-4,5′-bithiazol-2′-yl)benzamide. The cells were exposed to a compound of the invention for 24 hours prior to the assay. The inserts were transferred to a Navicyte Ussing recording chamber and superfused with a HEPES buffered physiological saline (HB-PS) with composition (in mM): NaCl, 137; KCl, 4.0; CaCl2, 1.8; MgCl2, 1; HEPES, 10; Glucose, 10; pH adjusted to 7.4 with NaOH. The mucosal solution was 10CF-PS (composition in mM: Na-gluconate, 137; KCl, 4; CaCl2, 1.8; MgCl2, 1; HEPES, 10; Mannitol, 10; pH adjusted to 7.4 with N-methyl-D-glucamine) to create a transepithelial Cl ion gradient. A Physiologic Instruments VCC MC6 epithelial voltage clamp (Physiologic Instruments, Inc., San Diego, Calif.) was used to record the short circuit current (ISC).
(§2) Inserts were voltage clamped at 0 mV to measure the ISC. 10CF-PS solution (5 ml) was added to the mucosal (top) side of the Snapwell filter and HB-PS solution (5 mL) was added to the serosal (bottom) side of the Snapwell filter insert to permeabilize the serosal membrane. Solution additions and replacements in the Navicyte chambers were performed in a way to maintain a hydrostatic pressure gradient from mucosal to serosal sides of the filters by maintaining a solution level greater or equal in the mucosal chamber relative to the serosal chamber during solution changes. After acquisition of at least 10 minutes of baseline current, agonists (final concentrations: 10 μM forskolin, 100 μM 3-isobutyl-1-methylxanthine [IBMX] and 20 μM genistein) and antagonist (final concentration: 10 μM CFTRinh-172) were applied sequentially and cumulatively at 10 minute intervals for forskolin and IBMX, and at 15 minute intervals for genistein and CFTRinh-172, to both serosal and mucosal epithelial surfaces.
(§3) Agonists were prepared as 200×-1000× concentrated solutions in HP-PS and 10CF-PS. Agonist stocks prepared in HB-PS were added to the serosal surface, while agonist stocks prepared in 10CF-PS were added to the mucosal surface. In potentiator assays, appropriate volumes from 10 mM test compound solution in DMSO were added to the mucosal 10CF-PS solution. Agonists were diluted to the final working concentration in the Navicyte chamber by removal of chamber solution and addition of the concentrated stock solution. Order of solution removal was serosal then mucosal and for solution additions mucosal then serosal in order to maintain a hydrostatic pressure gradient from mucosal to serosal during solution changes. Transepithelial resistance was monitored every 20 s with 10 mV voltage steps.
(§4) EC50 values are defined as the concentration of compound that gives a >25% increase in whole cell Cl^− conductance (compared to DMSO at 37° C. as a vehicle) at 10 μM. The corrector efficacy was measured as a percentage change in agonist+compound vs. agonist: ΔIcompound(forskolin+IBMX+genistein)/ΔIvehicle(forskolin+IBMX+genistein). The potentiator efficacy was measured as a percentage change in forskolin activity: ΔI(forskolin+compound)/ΔI(forskolin+IBMX+genistein).

Assay [2] deals with T1, ΔF508 CFTR. The experiment in a line: Dual corrector potentiator assay, potentiator mode: FRT cell Ussing chamber short circuit current, compound added to mucosal solution. The format is cell-based. Particulars: for Potentiator Efficacy: ΔI(forskolin+compound)/ΔI(forskolin+IBMX+genistein). How it is done:
as §1, §2, §3, §4

The mark [3] stands for this setting: ** cells treated with reference corrector N-(2-(5-chloro-2-methoxyphenylamino)-4′-methyl-4,5′-bithiazol-2′-yl)benzamide.
Setting [4] is: pretreatment of cells not given.

T1 sequence (P13569 with tags, fused parts or gaps DEL508-508): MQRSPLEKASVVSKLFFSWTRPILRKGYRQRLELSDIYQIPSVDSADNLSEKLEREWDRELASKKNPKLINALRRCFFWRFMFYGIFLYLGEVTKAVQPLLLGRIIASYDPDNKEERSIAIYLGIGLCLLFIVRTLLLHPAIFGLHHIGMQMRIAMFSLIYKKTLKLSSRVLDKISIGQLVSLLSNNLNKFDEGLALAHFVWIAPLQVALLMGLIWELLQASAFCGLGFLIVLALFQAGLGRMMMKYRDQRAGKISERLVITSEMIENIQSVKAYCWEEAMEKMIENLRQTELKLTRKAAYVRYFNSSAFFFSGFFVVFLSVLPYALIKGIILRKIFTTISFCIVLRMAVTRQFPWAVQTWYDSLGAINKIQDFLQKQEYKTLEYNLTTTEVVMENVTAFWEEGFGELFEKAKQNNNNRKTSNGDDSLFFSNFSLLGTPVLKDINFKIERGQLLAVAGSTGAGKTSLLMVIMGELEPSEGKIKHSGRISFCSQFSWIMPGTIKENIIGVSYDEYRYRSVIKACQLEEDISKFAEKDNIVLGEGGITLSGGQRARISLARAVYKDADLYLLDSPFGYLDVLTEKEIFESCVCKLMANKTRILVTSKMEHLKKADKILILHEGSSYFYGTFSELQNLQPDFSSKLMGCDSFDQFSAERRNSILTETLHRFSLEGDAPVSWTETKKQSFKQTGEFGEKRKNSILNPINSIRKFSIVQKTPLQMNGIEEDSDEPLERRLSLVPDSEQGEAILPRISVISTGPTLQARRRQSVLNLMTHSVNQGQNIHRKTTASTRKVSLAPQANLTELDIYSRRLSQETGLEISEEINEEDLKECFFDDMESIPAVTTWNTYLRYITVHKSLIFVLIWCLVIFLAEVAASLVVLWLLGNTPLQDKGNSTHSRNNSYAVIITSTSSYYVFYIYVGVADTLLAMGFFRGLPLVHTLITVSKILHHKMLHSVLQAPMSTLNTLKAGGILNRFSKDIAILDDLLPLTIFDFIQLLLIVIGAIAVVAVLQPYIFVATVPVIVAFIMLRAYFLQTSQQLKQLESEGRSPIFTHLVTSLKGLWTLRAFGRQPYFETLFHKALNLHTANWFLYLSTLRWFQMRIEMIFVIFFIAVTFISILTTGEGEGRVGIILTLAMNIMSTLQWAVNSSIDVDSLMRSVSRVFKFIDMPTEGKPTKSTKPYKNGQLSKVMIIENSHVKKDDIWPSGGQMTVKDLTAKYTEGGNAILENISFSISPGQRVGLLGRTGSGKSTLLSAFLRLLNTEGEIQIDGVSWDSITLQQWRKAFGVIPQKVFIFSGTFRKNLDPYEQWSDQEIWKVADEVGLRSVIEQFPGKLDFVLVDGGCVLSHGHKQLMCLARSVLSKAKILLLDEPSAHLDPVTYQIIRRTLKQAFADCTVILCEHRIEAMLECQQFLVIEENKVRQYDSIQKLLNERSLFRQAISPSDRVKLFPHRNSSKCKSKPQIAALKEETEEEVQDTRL

Turning to `C[C@H]1CC[C@@H](Nc2ncc(-c3ccc(OC(F)(F)F)cc3)cn2)CC1` [Example 4, N-((1S,4S)-4-Methylcyclohexyl)-5-(4-(trifluoromethoxy)phenyl)pyrimidin-2-amine], on ΔF508 CFTR [1], the EC50 (commonly the concentration at which the effect is half-maximal) was less than 10 µM and the “Corrector Efficacy” value is listed as “+++ (+++=>3)”. For the same compound, on ΔF508 CFTR [2] (* vehicle treated cells), the EC50 is less than 3 µM and the “Potentiator Efficacy” value is “+++* (+++=>0.6)”. Moreover, at ΔF508 CFTR [2] (setting [3]), the EC50 was less than 3 µM and the “Potentiator Efficacy” value is given as “+++** (+++=>0.6)”.
Take `COc1nc(N[C@H]2CC[C@@H](C)CC2)ncc1-c1ccc(OC(C)C)cc1` [Example 7, 5-(4-Isopropoxyphenyl)-4-methoxy-N-((1S,4S)-4-methylcyclohexyl)pyrimidin-2-amine]: at ΔF508 CFTR [1], the EC50 is less than 10 µM and the “Corrector Efficacy” value is reported as “+++ (+++=>3)”. Moreover, on ΔF508 CFTR [2] (setting [3]), the EC50 is less than 10 µM and the “Potentiator Efficacy” value was “++** (++=0.3-0.6)”.
With `C[C@H]1CC[C@@H](Nc2ncc(-c3ccc(OC(F)F)cc3)cn2)CC1` [Example 19, 5-(4-(difluoromethoxy)phenyl)-N-((1s,4s)-4-methylcyclohexyl)pyrimidin-2-amine], on ΔF508 CFTR [1], the EC50 was less than 10 µM and the “Corrector Efficacy” value is reported as “+++ (+++=>3)”. Also, at ΔF508 CFTR [2] (setting [3]), the EC50 was less than 3 µM and the “Potentiator Efficacy” value was “+++** (+++=>0.6)”.
For `CC(C)Oc1ccc(-c2cnc(N[C@H]3CC[C@@H](C)CC3)nc2)cc1` [Example 23, 5-(4-isopropoxyphenyl)-N-((1s,4s)-4-methylcyclohexyl)pyrimidin-2-amine], in that order: less than 10 µM, “+++ (+++=>3)”, less than 3 µM and “+++** (+++=>0.6)”.
As for `COc1ccc(-c2cnc(N[C@H]3CC[C@@H](C)CC3)nc2)cc1` [Example 27, 5-(4-methoxyphenyl)-N-((1s,4s)-4-methylcyclohexyl)pyrimidin-2-amine], at ΔF508 CFTR [1], the EC50 is less than 10 µM and the “Corrector Efficacy” value is “+++ (+++=>3)”. Moreover, on ΔF508 CFTR [2] (setting [3]), the EC50 is less than 3 µM and the “Potentiator Efficacy” value is “++** (++=0.3-0.6)”.
As to `COc1nc(N[C@H]2CC[C@@H](C)CC2)ncc1-c1ccc(OC(F)(F)F)cc1` [Example 58, 4-methoxy-N-((1s,4s)-4-methylcyclohexyl)-5-(4-(trifluoromethoxy)phenyl)pyrimidin-2-amine], on ΔF508 CFTR [1], the EC50 is less than 10 µM and the “Corrector Efficacy” value is reported as “+++ (+++=>3)”. Moreover, at ΔF508 CFTR [2] (setting [3]), the EC50 is less than 3 µM and the “Potentiator Efficacy” value is recorded as “+++** (+++=>0.6)”.
The like results for `COc1nc(N[C@H]2CC[C@@H](C)CC2)ncc1-c1ccc(OC(F)F)cc1` [Example 59, 5-(4-(difluoromethoxy)phenyl)-4-methoxy-N-((1s,4s)-4-methylcyclohexyl)pyrimidin-2-amine] were, in that order, less than 10 µM, “+++ (+++=>3)”, less than 3 µM and “++** (++=0.3-0.6)”.
As to `COc1nc(N[C@H]2CC[C@@H](C)CC2)ncc1-c1ccc(OC(C)C)cc1` [Example 102, 5-(4-isopropoxyphenyl)-4-methoxy-N-((1s,4s)-4-methylcyclohexyl)pyrimidin-2-amine], on ΔF508 CFTR [2] (setting [4]), the EC50 was less than 3 µM and the “Potentiator Efficacy” value is listed as “++ (++=0.3-0.6)”.
In the case of `COc1nc(N[C@H]2CC[C@@H](C)CC2)ncc1-c1ccc(OC(F)(F)F)cc1` [Example 103, 4-methoxy-N-((1s,4s)-4-methylcyclohexyl)-5-(4-(trifluoromethoxy)phenyl)pyrimidin-2-amine], at ΔF508 CFTR [2] (setting [4]), the EC50 was less than 3 µM and the “Potentiator Efficacy” value is listed as “++ (++=0.3-0.6)”.
The like results for `COc1nc(N[C@H]2CC[C@@H](C)CC2)ncc1-c1ccc(OC(F)F)cc1` [Example 104, 5-(4-(difluoromethoxy)phenyl)-4-methoxy-N-((1s,4s)-4-methylcyclohexyl)pyrimidin-2-amine] were, in that order, less than 3 µM and “++ (++=0.3-0.6)”.
With `COc1nc(N[C@H]2CC[C@@H](C)CC2)ncc1-c1ccc(OC(C)C)nc1` [Example 118, 5-(6-isopropoxypyridin-3-yl)-4-methoxy-N-((1s,4s)-4-methylcyclohexyl)pyrimidin-2-amine], at ΔF508 CFTR [1], the EC50 is less than 10 µM and the “Corrector Efficacy” value is “+++ (+++=>3)”.
`COc1nc(N[C@H]2CC[C@@H](C)CC2)ncc1-c1ccc(N2CCCCC2)nc1` [Example 119, 4-methoxy-N-((1s,4s)-4-methylcyclohexyl)-5-(6-(piperidin-1-yl)pyridin-3-yl)pyrimidin-2-amine]: at ΔF508 CFTR [1], the concentration giving a half-maximal response (EC50) was less than 10 µM and the “Corrector Efficacy” value is listed as “+++ (+++=>3)”.
As for `COc1nc(N[C@H]2CC[C@@H](C)CC2)ncc1-c1ccc(OCC#N)cc1` [Example 125, 2-(4-(4-methoxy-2-((1s,4s)-4-methylcyclohexylamino)pyrimidin-5-yl)phenoxy)acetonitrile], on ΔF508 CFTR [1], the EC50 was greater than 20 µM and the “Corrector Efficacy” value is given as “+++ (+++=>3)”.
As to `C[C@H]1CC[C@@H](Nc2ncc(-c3ccc(OCC#N)cc3)c(OCC3CC3)n2)CC1` [Example 133, 2-(4-(4-(cyclopropylmethoxy)-2-((1s,4s)-4-methylcyclohexylamino)pyrimidin-5-yl)phenoxy)acetonitrile], on ΔF508 CFTR [1], the EC50 was greater than 20 µM and the “Corrector Efficacy” value is “+++ (+++=>3)”.
As for `COc1nc(N[C@H]2CC[C@@H](C)CC2)ncc1-c1ccnc(C#N)c1` [Example 143, 4-(4-methoxy-2-((1s,4s)-4-methylcyclohexylamino)pyrimidin-5-yl)picolinonitrile], on ΔF508 CFTR [2] (setting [4]), the EC50 is less than 3 µM and the “Potentiator Efficacy” value is on record as “++ (++=0.3-0.6)”.
As for `C[C@H]1CC[C@@H](Nc2ncc(-c3ccc(OCC#N)cc3)c(OC3CCOC3)n2)CC1` (some centres unmarked) [Example 150, 2-(4-(2-((1s,4s)-4-methylcyclohexylamino)-4-(tetrahydrofuran-3-yloxy)pyrimidin-5-yl)phenoxy)acetonitrile], at ΔF508 CFTR [1], the EC50 was greater than 10 µM and the “Corrector Efficacy” value is reported as “+++ (+++=>3)”.
As to `C[C@H]1CC[C@@H](Nc2ncc(-c3ccc4c(c3)OCCO4)c(O[C@@H]3CCOC3)n2)CC1` [Example 201, 5-(2,3-dihydrobenzo[b][1,4]dioxin-6-yl)-N-((1s,4S)-4-methylcyclohexyl)-4-((R)-tetrahydrofuran-3-yloxy)pyrimidin-2-amine], at ΔF508 CFTR [1], the EC50 is roughly 10 µM and the “Corrector Efficacy” value is listed as “+++ (+++=>3)”.
